Measurements from patent US11944622B2 (Annapurna Bio, Inc., priority 2018, dated 2024).

Target: T1, APJ Receptor (Homo sapiens, UniProt P35414)
T1 sequence (P35414 1-380): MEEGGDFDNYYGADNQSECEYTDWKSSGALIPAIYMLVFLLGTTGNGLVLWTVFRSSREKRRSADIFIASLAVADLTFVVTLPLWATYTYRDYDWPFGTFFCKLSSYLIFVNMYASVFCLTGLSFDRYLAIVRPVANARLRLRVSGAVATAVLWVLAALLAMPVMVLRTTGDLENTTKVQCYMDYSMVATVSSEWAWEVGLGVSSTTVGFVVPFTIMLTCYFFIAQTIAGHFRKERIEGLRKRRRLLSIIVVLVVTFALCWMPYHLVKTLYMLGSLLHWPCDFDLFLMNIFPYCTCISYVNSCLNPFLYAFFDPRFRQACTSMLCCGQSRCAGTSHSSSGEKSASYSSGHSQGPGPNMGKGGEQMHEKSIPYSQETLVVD
Assay: APJ cAMP assay (DiscoverX enzyme fragment complementation; inhibition of forskolin-stimulated cAMP)
Format: cell-based
Conditions: CHO-K1 cell line stably expressing the APJ Receptor; EC80 forskolin; 30 minutes at 37° C.; read-out: Potency Range (APJ cAMP EC50)
Method in brief: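 CHO-K1 cells stably expressing APJ incubated with compound plus EC80 forskolin for 30 min at 37° C. cAMP detected by β-galactosidase enzyme fragment complementation with chemiluminescent read-out; % activity calculated relative to vehicle and maximal controls.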

Q: Which EC50 does the source give for `CCOc1cccc(-c2nc3nc(O)c(NS(C)(=O)=O)nc3n2-c2c(OC)cccc2OC)n1` [Example 135, N-(1-(2,6-Dimethoxyphenyl)-2-(6-ethoxypyridin-2-yl)-5-hydroxy-1H-imidazo[4,5-b]pyrazin-6-yl)methanesulfonamide] here?
A: The EC50 was 1 to 100 nM.

Q: How did the EC50 turn out when `CCOc1cccc(-c2nc3nc(N4CC(O)C4)c(NS(C)(=O)=O)nc3n2-c2c(OC)cccc2OC)n1` [Example 136, N-(1-(2,6-Dimethoxyphenyl)-2-(6-ethoxypyridin-2-yl)-5-(3-hydroxyazetidin-1-yl)-1H-imidazo[4,5-b]pyrazin-6-yl)methanesulfonamide] was run?
A: Its EC50 is 100 to 10000 nM.

Q: `C=Cc1nc2nc(-c3cccc(OCC)n3)n(-c3c(OC)cccc3OC)c2nc1NS(C)(=O)=O` [Example 137, N-(1-(2,6-Dimethoxyphenyl)-2-(6-ethoxypyridin-2-yl)-5-vinyl-1H-imidazo[4,5-b]pyrazin-6-yl)methanesulfonamide] was tested. Which EC50 did it give?
A: The EC50 was 1 to 100 nM.

Q: Which EC50 does the source give for `CCOc1cccc(-c2nc3nc(NS(C)(=O)=O)c(Cl)nc3n2-c2c(OC)cccc2OC)n1` [Example 138, N-(6-Chloro-1-(2,6-dimethoxyphenyl)-2-(6-ethoxypyridin-2-yl)-1H-imidazo[4,5-b]pyrazin-5-yl)methanesulfonamide] here?
A: Its EC50 is 1 to 100 nM.

Q: `CCOc1cccc(-c2nc3nnc(NS(C)(=O)=O)c(C)c3n2-c2c(OC)cccc2OC)n1` [Example 139, N-(7-(2,6-Dimethoxyphenyl)-8-(6-ethoxypyridin-2-yl)-6-methyl-7H-imidazo[4,5-c]pyridazinyl)methanesulfonamide] was tested. Which EC50 did it give?
A: Its EC50 is 1 to 100 nM.

Q: Which EC50 does the source give for `CCOc1cccc(-c2nc3nc(CO)c(NS(C)(=O)=O)nc3n2-c2c(OC)cccc2OC)n1` [Example 140, N-(1-(2,6-Dimethoxyphenyl)-2-(6-ethoxypyridin-2-yl)-5-(hydroxymethyl)-1H-imidazo[4,5-b]pyrazin-6-yl)methanesulfonamide] here?
A: The EC50 was 1 to 100 nM.

Q: How did the EC50 turn out when `CCOc1cccc(-c2nc3nc(COC(F)F)c(NS(C)(=O)=O)nc3n2-c2c(OC)cccc2OC)n1` [Example 141, N-(5-((Difluoromethoxy)methyl)-1-(2,6-dimethoxyphenyl)-2-(6-ethoxypyridin-2-yl)-1H-imidazo[4,5-b]pyrazin-6-yl)methanesulfonamide] was run?
A: The EC50 was 1 to 100 nM.

Q: How did the EC50 turn out when `CCOc1cccc(-c2nc3nc(Cl)c(NS(=O)(=O)Cc4ncc(C)cn4)nc3n2-c2c(OC)cccc2OC)n1` [Example 142, N-(5-Chloro-1-(2,6-dimethoxyphenyl)-2-(6-ethoxypyridin-2-yl)-1H-imidazo[4,5-b]pyrazin-6-yl)-1-(5-methylpyrimidin-2-yl)methanesulfonamide] was run?
A: The EC50 was less than 1 nM.

Q: `CCOc1cccc(-c2nc3nc(Cl)c(NS(=O)(=O)Cc4cccc(F)c4)nc3n2-c2c(OC)cccc2OC)n1` [Example 143, N-(5-Chloro-1-(2,6-dimethoxyphenyl)-2-(6-ethoxypyridin-2-yl)-1H-imidazo[4,5-b]pyrazin-6-yl)-1-(3-fluorophenyl)methanesulfonamide] was tested. Which EC50 did it give?
A: Its EC50 is 1 to 100 nM.

Q: `CCOc1cccc(-c2nc3nnc(NS(=O)(=O)Cc4ncc(Cl)cn4)cc3n2-c2c(OC)cccc2OC)n1` [Example 144, 1-(5-Chloropyrimidin-2-yl)-N-(7-(2,6-dimethoxyphenyl)-8-(6-ethoxypyridin-2-yl)-7H-imidazo[4,5-c]pyridazinyl)methanesulfonamide] was tested. Which EC50 did it give?
A: Its EC50 is less than 1 nM.

Q: Which EC50 does the source give for `CCOc1cccc(-c2nc3nc(N)c(NS(C)(=O)=O)nc3n2-c2c(OC)cccc2OC)n1` [Example 145, N-(5-Amino-1-(2,6-dimethoxyphenyl)-2-(6-ethoxypyridin-2-yl)-1H-imidazo[4,5-b]pyrazin-6-yl)methanesulfonamide] here?
A: Its EC50 is 1 to 100 nM.

Q: `CCOc1cccc(-c2nc3nc(F)c(NS(C)(=O)=O)nc3n2-c2c(OC)cccc2OC)n1` [Example 146, N-(1-(2,6-Dimethoxyphenyl)-2-(6-ethoxypyridin-2-yl)-5-fluoro-1H-imidazo[4,5-b]pyrazin-6-yl)methanesulfonamide] was tested. Which EC50 did it give?
A: The EC50 was 1 to 100 nM.
